Test results as given in patent US12116358B2, “Substituted indoles and methods of use thereof” (EPIZYME, INC., priority 2018, dated 2024).
Like-named read-outs stand apart in the source and are kept apart here.

How the values were obtained:
[1] = molecular target: T1, SETD2(1434-1711) (Homo sapiens, UniProt Q9BYW2); assay: SETD2 (1434-1711) assay; assay type: biochemical; settings: read-out: SETD2 (1434-1711)
T1 construct: SETD2 (1434-1711) Assay; catalogue N/A
T1 sequence (Q9BYW2 1434-1711): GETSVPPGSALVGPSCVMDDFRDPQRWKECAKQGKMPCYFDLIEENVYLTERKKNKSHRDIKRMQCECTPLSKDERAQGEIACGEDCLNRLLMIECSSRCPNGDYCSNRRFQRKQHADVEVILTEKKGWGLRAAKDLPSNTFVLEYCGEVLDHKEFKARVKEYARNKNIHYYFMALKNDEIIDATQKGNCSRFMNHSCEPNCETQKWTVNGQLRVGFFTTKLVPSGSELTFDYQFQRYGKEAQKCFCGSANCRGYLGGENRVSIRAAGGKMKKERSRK

[2] = tested on: H3K36me3 in A549 cells; assay: In-Cell Western (ICW) assay of SETD2 inhibitors (A549 assay); assay type: cell-based, human; settings: A549 cells, read-out: SETD2 A549
Procedure, shortened: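 A549 cells seeded at 4,000/well onto compound and incubated 3 days at 37° C. Methanol-fixed cells stained overnight at 4° C with anti-H3K36me3 (1:1000), then IRDye 800CW secondary with DRAQ5 DNA counterstain. Plates read by Licor imaging at 700 and 800 channels.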

Row | Compound | IC50 [1] [nM] | IC50 ([2]; Homo sapiens) [nM] | IC50 [2] [nM]
1 | CC(=O)N1CCN([C@@H]2CCC[C@@H](NC(=O)c3cc4c(F)ccc(C)c4[nH]3)C2)[C@@H](C)C1 [compound 1074] | 4500 | > 2000 | –
2 | Cc1ccc(F)c2cc(C(=O)Nc3cccc(N4CCC(N5CCC(N)CC5)C4)c3)[nH]c12 (stereo not drawn) [compound 347] | 3 | – | 1900
3 | COCCN1CCC2(CC1)CN(c1cccc(NC(=O)c3cc4c(F)ccc(C)c4[nH]3)c1)C2 [compound 109] | 10 | – | 200
4 | Cc1ccc(F)c2cc(C(=O)N[C@@H]3CCC[C@H](N4CCN(C)C(=O)C4C)C3)[nH]c12 (stereo partly drawn) [compound 884] | 100 | 200 | –
5 | Cc1ccc(F)c2cc(C(=O)NC3CCCC(N4CCC(N(C)C(=O)CO)C4)C3)[nH]c12 (stereo not drawn) [compound 984] | 5300 | – | > 2000
6 | Cc1ccc(F)c2cc(C(=O)Nc3cccc(N4CC5CCCN(C)C5C4)c3)[nH]c12 (stereo not drawn) [compound 182] | 20 | – | 400
7 | Cc1cc(CCN2CCN(C)CC2)cnc1C(Cc1ccccc1)NC(=O)c1cc2c(F)ccc(C)c2[nH]1 (stereo not drawn) [compound 258] | 40 | 600 | –
8 | Cc1ccc(F)c2cc(C(=O)Nc3cccc(N(C)C4CCN(C)C4)c3)[nH]c12 (stereo not drawn) [compound 342] | 100 | 1800 | –
9 | Cc1ccc(F)c2cc(C(=O)Nc3cccc(N4CCC5(CC4)CNC5)c3)[nH]c12 [compound 179] | 10 | 400 | –
10 | Cc1ccc(F)c2cc(C(=O)Nc3cc(F)cc(N4CCN(C(=O)CN(C)C)C(C)C4)c3)[nH]c12 (stereo not drawn) [compound 70] | 9 | 200 | –
11 | Cc1ccc(F)c2cc(C(=O)Nc3cccc(N4CCN(C(C)C)CC4C)c3)[nH]c12 (stereo not drawn) [compound 280] | 100 | 900 | –
12 | Cc1ccc(F)c2cc(C(=O)NC(c3nn4ccccc4c3C)C3CC3)[nH]c12 (stereo not drawn) [compound 424] | 700 | – | 3800
13 | Cc1ccc(F)c2cc(C(=O)Nc3cccc(N4CCN(C)CC4)n3)[nH]c12 [compound 344] | 200 | – | 1800
14 | Cc1ccc(F)c2cc(C(=O)NC3CCCC(N4CCC(N(CCO)S(C)(=O)=O)C4)C3)[nH]c12 (stereo not drawn) [compound 1150] | 4200 | – | > 2000
15 | CC(=O)N1CCN(C2CCCC(NC(=O)c3cc4c(F)ccc(C)c4[nH]3)C2)C(C)C1 (stereo not drawn) [compound 1021] | 50 | – | 90
16 | CN/C(=N\C#N)N1CCN([C@H]2CCC[C@@H](NC(=O)c3cc4c(F)ccc(C)c4[nH]3)C2)CC1 [compound 1114] | 40 | 1600 | –
17 | CC(=O)N1CC2CC(C1)N2c1cccc(NC(=O)c2cc3c(F)ccc(C)c3[nH]2)c1 [compound 365] | 2600 | – | > 2000
18 | Cc1cc(Cn2cc[nH]c2=O)cnc1C(NC(=O)c1cc2c(F)ccc(C)c2[nH]1)C1CC1 (stereo not drawn) [compound 273] | 200 | 800 | –
19 | Cc1ccc(F)c2cc(C(=O)NC3CCCC(N4CCN(C5CCOC5)C(=O)C4)C3)[nH]c12 (stereo not drawn) [compound 973] | 40 | – | 200
20 | Cc1ccc(F)c2cc(C(=O)Nc3cccc(N4CC(C)OCC4C)c3)[nH]c12 (stereo not drawn) [compound 289] | 400 | 1100 | –
21 | COC(=O)N1CCN(c2cccc(NC(=O)c3cc4c(F)ccc(C)c4[nH]3)c2)CC1 [compound 121] | 50 | – | 300
22 | Cc1ccc(F)c2cc(C(=O)NC3CCCC(N4CCCOCC4)C3)[nH]c12 (stereo not drawn) [compound 388] | > 10000 | – | > 2000
23 | Cc1ccc(F)c2cc(C(=O)Nc3cc(F)cc4cnccc34)[nH]c12 [Cpd. No. 82, 4-fluoro-N-(7-fluoroisoquinolin-5-yl)-7-methyl-1H-indole-2-carboxamide] | 40 | 200 | –
24 | CC(=O)N1[C@@H](C)CN(c2cccc(NC(=O)c3cc4c(F)ccc(C)c4[nH]3)c2)C[C@@H]1C [compound 298] | 300 | 1100 | –
25 | Cc1cc(CN2CCN(C)CC2)cnc1C(NC(=O)c1cc2cccc(C)c2[nH]1)C1CC1 (stereo not drawn) [compound 477] | 2100 | 9300 | –
26 | Cc1ccc(F)c2cc(C(=O)Nc3cccc4ncccc34)[nH]c12 [compound 238] | 200 | – | 600

Row | Compound | IC50 [1] [nM] | IC50 ([2]; Homo sapiens) [nM] | IC50 [2] [nM]
27 | Cc1ccc(F)c2cc(C(=O)N[C@@H]3CCC[C@@H](N4CCN(C)CC4=O)C3)[nH]c12 [compound 917] | > 10000 | > 2000 | –
28 | CCC(=O)N1CCN(C2CCCC(NC(=O)c3cc4c(F)ccc(C)c4[nH]3)C2)CC1C(F)(F)F (stereo not drawn) [compound 1164] | 2100 | – | > 2000
29 | Cc1ccc(F)c2cc(C(=O)Nc3cccc(N4CCOC(CN(C)C)C4)c3)[nH]c12 (stereo not drawn) [compound 167] | 50 | 300 | –
30 | CC(=O)N1CCN(C2COCC(NC(=O)c3cc4c(F)ccc(C)c4[nH]3)C2)CC1 (stereo not drawn) [compound 985] | 6600 | – | > 2000
31 | Cc1ccc(F)c2cc(C(=O)NC3CCCC(N4CCn5c(nnc5C(F)(F)F)C4)C3)[nH]c12 (stereo not drawn) [compound 989] | 100 | – | 800
32 | COc1ccnc(C(NC(=O)c2cc3c(F)ccc(C)c3[nH]2)C2CC2)c1C (stereo not drawn) [compound 269] | 100 | 700 | –
33 | COCC1CN(c2cccc(NC(=O)c3cc4c(F)ccc(C)c4[nH]3)c2)CCO1 (stereo not drawn) [compound 133] | 100 | 300 | –
34 | CC(=O)N1CCC2(CC1)CCN(c1cc(F)cc(NC(=O)c3cc4c(F)ccc(C)c4[nH]3)c1)C2 [compound 5] | 8 | – | 40
35 | Cc1ccc(F)c2cc(C(=O)NC3CCCC(N4CCN5C(=O)CCCC5C4)C3)[nH]c12 (stereo not drawn) [compound 1080] | 500 | – | 1700
36 | Cc1ccc(F)c2cc(C(=O)NC3CCCN(CC(=O)N(C)C)C3)[nH]c12 (stereo not drawn) [compound 377] | > 10000 | > 2000 | –
37 | CCNC(=O)N1CCN(C2CCCC(NC(=O)c3cc4c(F)ccc(C)c4[nH]3)C2)CC1 (stereo not drawn) [compound 948] | 10 | – | 100
38 | Cc1ccc(F)c2cc(C(=O)NC3CCCN(C4CCN(C)C(=O)C4)C3)[nH]c12 (stereo not drawn) [compound 367] | 4200 | – | > 2000
39 | Cc1ccc(F)c2cc(C(=O)Nc3cccc(N4CCC(NCc5cnc[nH]5)CC4)c3)[nH]c12 [compound 433] | 30 | 4600 | –
40 | Cc1ccc(F)c2cc(C(=O)Nc3cccc(CC(=O)N(C)C)c3)[nH]c12 [compound 256] | 200 | 600 | –
41 | Cc1ccc(F)c2cc(C(=O)Nc3cccc(C4CCN(C)CC4)c3)[nH]c12 [compound 168] | 20 | 300 | –
42 | CC(=O)N1CCC(N2CCCC(NC(=O)c3cc4c(F)ccc(C)c4[nH]3)C2)CC1 (stereo not drawn) [compound 366] | 3000 | > 2000 | –
43 | CC(=O)N1CCC12CN(C1CCCC(NC(=O)c3cc4c(F)ccc(C)c4[nH]3)C1)C2 (stereo not drawn) [compound 950] | 400 | – | > 2000
44 | Cc1ccc(F)c2cc(C(=O)Nc3cccc(N4CCC(N(C)C)C(C)C4)c3)[nH]c12 (stereo not drawn) [compound 99] | 30 | – | 200
45 | Cc1ccc(F)c2cc(C(=O)Nc3cccc(-c4nnc(CO)s4)c3)[nH]c12 [compound 107] | 40 | – | 200
46 | COCc1nnc(-c2cccc(NC(=O)c3cc4c(F)ccc(C)c4[nH]3)c2)s1 [compound 81] | 30 | – | 200
47 | Cc1ccc(F)c2cc(C(=O)Nc3ccn(C4CCN(C)CC4)n3)[nH]c12 [compound 548] | 5100 | – | > 25000
48 | Cc1ccc(F)c2cc(C(=O)N[C@@H]3CCC[C@@H](N4CCN5C(=O)CCC[C@@H]5C4)C3)[nH]c12 [compound 1079] | 300 | 1300 | –
49 | CCOC(=O)N1CCC(N2CCC[C@@H](NC(=O)c3cc4c(F)ccc(C)c4[nH]3)C2)CC1 [compound 875] | 700 | > 2000 | –
50 | Cc1nc([C@@H]2CCC[C@H](NC(=O)c3cc4c(F)ccc(C)c4[nH]3)C2)no1 [compound 1065] | 9100 | > 2000 | –
51 | Cc1ccc(F)c2cc(C(=O)Nc3cccc(NC4CCN(C)C4)c3)[nH]c12 (stereo not drawn) [compound 330] | 70 | 1600 | –
